Data as given in patent US20070037785A1, “Novel dipeptidyl peptidase IV inhibitors used for functionally influencing different cells and treating immunological, infammatory, neuronal, and other diseases” (priority 2003, published 2007).
pIC50: −log10 of the molar value.

molecular target: dipeptidyl peptidase IV (Homo sapiens, UniProt P27487); experiment: biochemical; conditions: values marked with "*" are ID50 values; read-out: IC50DPIV, values marked with "*" = ID50
Sequence (P27487 whole entry, species assumed): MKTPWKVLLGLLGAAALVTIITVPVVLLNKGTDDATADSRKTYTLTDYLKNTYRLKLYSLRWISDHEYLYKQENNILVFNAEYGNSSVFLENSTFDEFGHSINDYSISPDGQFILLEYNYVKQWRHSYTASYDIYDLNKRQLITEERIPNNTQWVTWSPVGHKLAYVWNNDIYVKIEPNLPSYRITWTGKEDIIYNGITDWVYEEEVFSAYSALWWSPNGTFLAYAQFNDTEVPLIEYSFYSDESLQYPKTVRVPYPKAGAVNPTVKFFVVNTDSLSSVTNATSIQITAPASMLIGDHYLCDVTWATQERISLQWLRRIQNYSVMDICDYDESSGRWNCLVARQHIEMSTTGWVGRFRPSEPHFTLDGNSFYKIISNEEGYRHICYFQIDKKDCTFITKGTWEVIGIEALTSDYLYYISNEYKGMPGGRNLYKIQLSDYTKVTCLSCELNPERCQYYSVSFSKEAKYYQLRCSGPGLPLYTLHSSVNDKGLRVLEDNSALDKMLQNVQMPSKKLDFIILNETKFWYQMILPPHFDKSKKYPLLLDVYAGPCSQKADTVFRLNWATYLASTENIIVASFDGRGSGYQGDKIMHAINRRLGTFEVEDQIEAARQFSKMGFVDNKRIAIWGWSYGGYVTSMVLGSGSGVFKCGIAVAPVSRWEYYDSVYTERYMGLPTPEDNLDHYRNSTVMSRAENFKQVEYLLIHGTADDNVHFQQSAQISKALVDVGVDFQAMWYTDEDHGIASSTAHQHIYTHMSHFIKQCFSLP

SMILES	pIC50
CCOC(=O)c1c(NC(=O)CSc2nc(=O)cc(N)n2-c2cccc(C)c2)sc2c1CCC2 [D3.116]	3.44
O=C(Nc1cccc(/N=C/c2cc(/N=N\c3ccccc3Cl)ccc2O)c1)c1ccco1 [D14.002]	5.60
Oc1ccc(-c2csc(Nc3ncccn3)n2)cc1O [D4.095]	3.79
O=C1c2sc3nnc(-c4ccccc4)c(=O)n3c2C(=O)N1c1ccccc1 [D3.114]	3.48
CCOC(=O)c1c(NC(=O)c2cccc([N+](=O)[O-])c2)sc(C(C)=O)c1C [D6.117]	3.67
CC(=O)Oc1ccc(-n2c(=O)c3ccccc3c3ccccc3c2=O)cc1 [D3.107]	3.57
Cc1ccc(C(=O)NC(NC(=S)Nc2sc3c(c2C(N)=O)CCCC3)C(Cl)(Cl)Cl)cc1 (stereo not drawn) [D3.099]	3.77
C=CCOC(=O)C1=CS(=O)(=O)c2ccccc21 [D3.105]	3.60
Cc1ccc(OCC(=O)N/N=C/c2c(Br)cc(Br)c(O)c2Br)c(Br)c1 [D10.106]	3.99
O=C(CC1(O)OC(c2ccccc2)=CC1=O)c1ccccc1 (stereo not drawn) [D6.122]	3.60
CN(C)c1ccc(N2CC(C)(C)C2=O)cc1 [D1.001]	5.92

The next lines start with the values.

pIC50	SMILES
3.90	O=C(COc1ccccc1C(=O)N/N=C\c1ccc(O)c(O)c1)N/N=C/c1ccc(O)c(O)c1 [D10.113]
5.54	COc1ccc(N(C(C)C(=O)N/N=C/c2ccc(Cl)cc2Cl)S(C)(=O)=O)cc1 (stereo not drawn) [D9.001]
3.78	CCn1c2ccccc2c2cc(/C=N/NC(=O)c3ccc([N+](=O)[O-])cc3)ccc21 [D10.116]
4.04	O=C(CNC(=O)c1cccc(F)c1)N/N=C/c1cc(Br)cc(Br)c1OC(=O)c1cccc(Br)c1 [D10.102]
3.34	CCC(O)(CC)C(=O)NN(C(=O)CNS(=O)(=O)c1ccc(C)cc1)c1ccccc1 [D14.007]
5.92	CCC(O)(CC)C(=O)NNc1ccc(C)cc1C [D14.001]
3.47	Cc1cc(C(=O)N/N=C\c2c[nH]c3ccccc23)c(C)o1 [D10.136]
3.56	COc1ccc(/C=N/NC(=O)C(=O)Nc2ccc(Cl)cc2C)c(OC)c1 [D10.134]
3.70	COc1ccc(/C=C2\C(=O)N(c3ccccc3)C3=C2C(c2ccc(Br)cc2)N(c2ccccc2)C3=O)cc1 (stereo not drawn) [D12.047]
3.11	Cc1ccccc1NC(=O)C(=O)N/N=C/c1cccc(Cl)c1 [D10.144]

same assay, conditions: values without "*" = IC-50; read-out: IC50DPIV

SMILES	pIC50
O=C(Nc1ccc(O)c(-c2nc3ccccc3s2)c1)c1ccc([N+](=O)[O-])o1 [D3.018]	4.84
CCOc1ccc(/C=N/NC(=O)c2cc(-c3c(OC)ccc4ccccc34)n[nH]2)cc1 [D6.081]	4.25
O=C1CSCC(=O)N1c1cc(Cl)cc(Cl)c1 [D4.011]	5.07
CC(C)(C)S(=O)(=O)C1=CN2C3=C(CCCC3)NC2C=C1 (stereo not drawn) [D6.020]	4.81
CC1=C(C#N)C(=O)N(CCO)C(=O)/C1=C\c1ccc(-c2cc(Cl)ccc2Cl)o1 [D6.071]	4.29
CCCOC(=O)c1cc(-c2ccc(/C=C3/C(=O)N(CC(C)O)C(=O)C(C#N)=C3C)o2)ccc1Cl (stereo not drawn) [D6.095]	4.09
Brc1cccc(/C=N/Nc2nnc3c(n2)[nH]c2ccccc23)c1 [D3.015]	4.91
CCOC(=O)c1c(N2C(=O)C3ON(c4ccccc4)C(c4ccc([N+](=O)[O-])cc4)C3C2=O)sc2c1CCCC2 (stereo not drawn) [D3.069]	4.27
CCCC(=O)Cc1ccc(N(C(=O)CCC)S(=O)(=O)c2cccs2)cc1 [D6.048]	4.50
O=C1C(Cc2c[nH]c3ccccc23)NC(=S)N1c1ccccc1 (stereo not drawn) [D3.051]	4.40
CNc1nc2c(c(=O)[nH]c(=O)n2C)n1Cc1ccccc1Cl [D6.043]	4.56
CNc1nc2c(c(=O)[nH]c(=O)n2C)n1Cc1ccccc1Cl [D3.091]	4.56
CCOC(=O)N1CCN(c2ccc(N3C(=O)CCCC3=O)cc2[N+](=O)[O-])CC1 [D4.078]	4.15
CC(C)(C)C(=O)N1CCN(c2cc(Cl)nc(SCC(=O)N3CCN(Cc4ccc5c(c4)OCO5)CC3)n2)CC1 [D3.059]	4.34
Cc1ccc(Cn2cccc2/C=N/NC(=S)Nc2ccc(C)c(C)c2)cc1 [D6.078]	4.26
NCc1ccccc1-n1cccc1 [D4.085]	4.03
NC(=O)C1CCN(c2ccc(N3C(=O)CCCC3=O)cc2[N+](=O)[O-])CC1 [D4.070]	4.24
Cn1c(=O)n(Cc2ccccc2)c(=O)c2c1nc(N1CCNCC1)n2Cc1ccccc1 [D3.064]	4.32
COc1ccc(-c2ccc(C3Nc4ccc5ccccc5c4C4=C3C(=O)CC(C)(C)C4)o2)cc1Cl (stereo not drawn) [D6.098]	4.06
CCOC(=O)c1ccc(-c2ccc(/C=C3\C(=O)N(CCO)C(=O)C(C#N)=C3C)o2)cc1 [D6.087]	4.18
CCOC(=O)c1cc(-c2ccc(/C=C3/C(=O)NC(=O)C(C#N)=C3C)o2)ccc1Cl [D4.069]	4.25
COc1cc2c(cc1OC)CC(C)(C)N=C2 [D3.026]	4.69
CC(=O)Oc1cccc(N2C(=O)C3C(C2=O)C2(C)C=CC3(C)O2)c1 (stereo not drawn) [D4.073]	4.18
CCOC(=O)c1c(C)oc2c1c1c(c3ccccc32)OCN(C2CCS(=O)(=O)C2)C1 (stereo not drawn) [D3.046]	4.47

SMILES	pIC50
O=C1NCCCCC1Nc1ccc(N2C(=O)CCCC2=O)cc1[N+](=O)[O-] (stereo not drawn) [D4.044]	4.47
CCOC(=O)c1n[nH]c2c1C(=O)N(c1ccc([N+](=O)[O-])cc1)C2=O [D2.005]	4.26
Cc1ccc(/C=N/NC(=O)c2cccc(I)c2)o1 [D6.084]	4.24
O=C(N/N=C/c1cc(Br)c(O)c(Br)c1O)/C(=C\c1ccc2c(c1)OCO2)NC(=O)c1ccccc1 [D12.032]	4.22
CCOC(=O)C(NC(=O)c1ccc(OC)cc1)(N1CCOCC1)C(F)(F)F (stereo not drawn) [D5.021]	4.53
CCCOC(=O)c1cc(-c2ccc(/C=C3\C(=O)N(CCCO)C(=O)C(C#N)=C3C)o2)ccc1Cl [D4.081]	4.12
CCOP(=O)(CC(=O)N1CCN(C(=O)Nc2cccc(Br)c2)C1C(=O)NCc1cccc(CN)c1)OCC (stereo not drawn) [D9.008]	4.33
O=C(NNC1=C(Cl)C(=O)C(Cl)(Cl)C1=O)c1ccccc1 [D14.004]	4.58
O=C(N/N=C/c1cc([N+](=O)[O-])cc([N+](=O)[O-])c1O)/C(=C\c1cccs1)NC(=O)c1ccccc1 [D10.029]	4.76
COC1CC2=C(CC1OC)CC(C)(C)NC2 (stereo not drawn) [D4.039]	4.54
N#C/C(=C\c1ccc(N2CCCCC2)c([N+](=O)[O-])c1)c1nn(CCO)c(N)c1C#N [D4.032]	4.63
O=C1c2ccc(-c3nc4ccccc4c(=O)o3)cc2C(=O)N1c1ccc(Cc2ccc(N3C(=O)c4ccc(-c5nc6ccccc6c(=O)o5)cc4C3=O)cc2)cc1 [D3.032]	4.57
CC(C)C1Cc2c(sc3nc(SCC(=O)c4ccccc4)n(Cc4ccccc4)c(=O)c23)CO1 (stereo not drawn) [D3.067]	4.28
COc1cc2c(cc1OC)CC(C)(C)NC2 [D3.005]	5.22
CC(C)(C)C(=O)Nc1ccc(C(=O)Nc2nccs2)cc1 [D6.007]	5.12
O=C1CCCC(=O)N1c1ccc(N2CCc3ccccc3C2)c([N+](=O)[O-])c1 [D3.104]	4.54
CCn1c(N2CCN(c3ccc(OC)cc3)CC2)nc2c1c(=O)[nH]c(=O)n2C [D6.028]	4.72
N#Cc1c(NC(=O)C(C(F)(F)F)C(F)(F)F)sc2c1CCCC2 [D3.049]	4.40
CC(C)(C)S(=O)(=O)c1ccc2nc3c(n2c1)CCCC3 [D3.003]	4.81
O=C(N/N=C/c1cc(Br)c(O)c(Br)c1O)/C(=C\c1ccc2c(c1)OCO2)NC(=O)c1ccccc1 [D10.089]	4.22
CC1=C(C#N)C(=O)N(CCCO)C(=O)/C1=C\c1ccc(-c2cc(C)c(C)cc2[N+](=O)[O-])o1 [D4.046]	4.46
O=C1CCCC(=O)N1c1ccc(N2CCN(Cc3ccccc3)CC2)c([N+](=O)[O-])c1 [D4.035]	4.61
CN(/N=C/c1sc(=O)[nH]c1Cl)c1ccccc1 [D6.049]	4.49

Continued, values first:

pIC50	SMILES
4.57	CCC(O)(CC)C(=O)NNc1ccc(C)cc1 [D14.005]
4.47	O=C(N/N=C/c1c(O)ccc2ccccc12)c1cc(-c2ccc(-c3ccccc3)cc2)n[nH]1 [D10.056]
5.12	CN(C)c1ccc(/C=N\NC(=O)c2cc(N)ccc2O)cc1 [D10.008]
4.36	CCc1c(C)[nH]c2c1/C(=N/OC(=O)C(C)C)CCC2 [D11.010]
4.69	CN(C)c1ccc(C2C=C(Nc3ccccc3)C(=O)N2c2ccccc2)cc1 (stereo not drawn) [D12.006]
4.23	Cc1ccccc1SCC(=O)N/N=C/c1ccc(C)c([N+](=O)[O-])c1 [D10.088]
4.24	Cc1cccc(C)c1OCC(=O)N/N=C/c1cc(Br)cc(Br)c1OC(=O)c1ccccc1I [D10.084]
5.19	O=C(N/N=C/c1ccc([N+](=O)[O-])c(O)c1)/C(=C\c1cccs1)NC(=O)c1ccccc1 [D10.004]
4.44	O=C(N/N=C/c1cccc(I)c1)c1cc(Br)ccc1O [D10.060]
4.40	O=C(N/N=C/c1cc(I)cc(I)c1O)c1ccc(NC(=O)c2ccccc2)cc1 [D10.062]
4.48	O=C(N/N=C/c1cccc(Oc2ccccc2)c1)c1cc(Br)cc(Br)c1O [D10.054]
4.48	Cc1csc(/C(=N\OC(=O)c2ccco2)C(N)=O)n1 [D11.009]
4.79	Cn1c(=O)c2c(nc(NCCCCO)n2Cc2ccccc2Cl)n(C)c1=O [D12.002]
4.42	O=C(Nc1c[nH]c(=O)[nH]c1=O)c1ccc2c(c1)C(=O)N(c1ccc(C(=O)c3ccccc3)cc1)C2=O [D12.016]
4.22	COC(=O)C1=CN(N(C(C)=O)C(C)=O)C(=O)CC1 [D12.033]
4.70	CCOc1cc(/C=N/NC(=O)COc2ccc(Cl)cc2)ccc1OC(=O)c1ccc(Br)cc1 [D10.035]
5.00	Nc1nonc1-n1nnc(C(=O)NN=C2c3ccccc3-c3ccccc32)c1-c1ccccc1 [D10.012]
4.14	CCOC(=O)CC(N)c1ccccc1Cl (stereo not drawn) [D13.005]
4.20	COc1cc(/C=N/NC(=O)CNC(=O)c2cccc(F)c2)ccc1OC(=O)c1ccccc1Cl [D10.093]
4.26	Cc1ccc(Cn2cccc2/C=N/NC(=S)Nc2ccc(C)c(C)c2)cc1 [D10.077]
4.39	Cc1ccc(C)n1-c1cccc(C(=O)N/N=C/c2cc(Br)c(O)c(Br)c2)c1 [D10.065]
4.69	O=C(Cn1nnc(-c2ccc(F)cc2)n1)N/N=C/c1ccc(-c2ccc3c(c2)COC3=O)o1 [D10.036]
